Test results reported in ChEMBL document CHEMBL1142591, “Scalusamides A-C, new pyrrolidine alkaloids from the marine-derived fungus Penicillium citrinum” (2005).
Values after ≈ are worked out from the molar mass of the structure shown.

Columns and labels:
Cryptococcus neoformans = experiment: Antifungal activity against Cryptococcus neoformans; format: functional
Micrococcus luteus = experiment: Antibacterial activity against Micrococcus luteus; format: functional

MIC (Cryptococcus neoformans): 16.7 µg/mL (≈ 59.3 µM)
MIC (Micrococcus luteus): 33.3 µg/mL (≈ 118 µM)
Structure (SMILES): C/C=C/CCCCC(=O)C(C)C(=O)N1CCC[C@@H]1CO (some centres not stated) [SCALUSAMIDE A]
